Experimental data from PubChem BioAssay AID720495 (Broad Institute, 2013).
Inconclusive results are not listed. Activity calls are given as the source filed them. The rule behind the calls is not given here.

Each compound was assayed against Protein AF-9 (Homo sapiens) (UniProt P42568) (assay: AF9 binding to AF4 blockers, potency – biochemical, cherry-picked samples, plate reader, dose response (AID 720495)). Settings: biochemical protein-protein interaction assay.
Protein AF-9 (Homo sapiens), sequence (P42568 whole entry, looked up): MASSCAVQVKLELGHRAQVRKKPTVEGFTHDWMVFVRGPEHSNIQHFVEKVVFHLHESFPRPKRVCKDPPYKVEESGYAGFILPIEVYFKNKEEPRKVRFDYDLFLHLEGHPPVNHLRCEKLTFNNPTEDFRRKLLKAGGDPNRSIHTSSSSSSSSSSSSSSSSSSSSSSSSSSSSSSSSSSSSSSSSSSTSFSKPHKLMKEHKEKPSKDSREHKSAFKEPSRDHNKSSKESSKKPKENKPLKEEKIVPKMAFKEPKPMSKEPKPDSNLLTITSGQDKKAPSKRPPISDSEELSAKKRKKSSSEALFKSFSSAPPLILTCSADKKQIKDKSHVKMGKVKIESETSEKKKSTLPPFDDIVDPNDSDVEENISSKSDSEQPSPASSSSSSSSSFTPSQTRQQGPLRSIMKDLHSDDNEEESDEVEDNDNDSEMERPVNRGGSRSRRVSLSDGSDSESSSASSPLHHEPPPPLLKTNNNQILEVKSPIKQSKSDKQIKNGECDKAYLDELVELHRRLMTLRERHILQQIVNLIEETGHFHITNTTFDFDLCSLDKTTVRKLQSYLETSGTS
Compound `CC1(C)CNc2cc(N)ccc2S1` has an AC50 of 2.52 µM.
`Cn1c(=O)cc2c3c(c(N4CCCCC4)ccc31)C(=O)c1ccccc1-2` was tested, and the AC50 was 8.32 µM.
`C[C@H](CO)N1C[C@H](C)[C@@H](CN(C)Cc2ccc(Cl)c(Cl)c2)Oc2ccc(N(C)C)cc2CC1=O` was tested, and the AC50 was 10.8 µM.
Work on `COC1=C(Nc2ccccc2OC)C(=O)c2ccccc2C1=O` yielded an AC50 of 3.9 µM.
In the case of `Cc1[nH]c2ccccc2c1N=Nc1ccccc1F`, the AC50 is reported as 10.2 µM.
`CN(C)c1ccc(/C=C2/C[N+](C)(C)C/C(=C/c3ccc(N(C)C)cc3)C2=O)cc1` gave an AC50 of 2.81 µM.
In the case of `CCN(CC)CCC(c1ccc(N(C)C)cc1)c1c(OC)cc(OC)c2c(-c3ccccc3)cc(=O)oc12` (stereo unspecified), the AC50 is reported as 3.97 µM.
Work on `Oc1cc(NCCN2CCOCC2)cc2cccnc12` yielded an AC50 of 7.86 µM.
Compound `Cc1c(C(=O)NCC(c2ccco2)N(C)C)oc2c(Cl)cccc12` (stereo unspecified) has an AC50 of 7.77 µM.
For `C[C@H]1CCCCO[C@H](CN(C)Cc2ccc(Cl)c(Cl)c2)[C@@H](C)CN([C@@H](C)CO)C(=O)c2cc(N(C)C)ccc2O1`, the AC50 was 10.6 µM.
Compound `O=C(c1ccc(-c2cc(O)c3ncccc3c2)cc1)N1CCNCC1` has an AC50 of 0.426 µM.
Work on `c1ccc(N=Nc2ccc3cccccc2-3)cc1` yielded an AC50 of 0.232 µM.
`CN(C)c1ccc(/C=C/c2cc[n+](C)c3ccccc23)cc1` showed an AC50 of 1.05 µM.
Compound `COc1ccc(C2CC(=O)Oc3c(C(CCN4CCCC(C)C4)c4ccc(N(C)C)cc4)c(OC)cc(OC)c32)cc1` (stereo unspecified) has an AC50 of 0.68 µM.
`O=C1c2ccccc2-c2onc3ccc(N4CCCC4)c1c23` showed an AC50 of 5.49 µM.
In the case of `Oc1c(C(Nc2cccc(C(F)(F)F)c2)c2ccncc2)ccc2cccnc12` (stereo unspecified), the AC50 is reported as 0.515 µM.
`C[C@@H]1CN([C@@H](C)CO)C(=O)c2cc(N(C)C)ccc2O[C@@H]1CN(C)Cc1ccc(-c2ccccc2)cc1` showed an AC50 of 8.93 µM.
For `CN(C)CCCNC(=S)NCC(c1ccc(Cl)cc1Cl)c1c[nH]c2ccccc12` (stereo unspecified), the AC50 was 10.7 µM.
For `c1ccc2c(NCCc3c[nH]c4ccccc34)c3ccccc3nc2c1`, the AC50 was 5.9 µM.
For `COc1cccc2sc(N(CCCN(C)C)C(=O)c3ccc(S(=O)(=O)N4CCCc5ccccc54)cc3)nc12`, the AC50 was 4.68 µM.
Compound `CC(C)(C)OC(=O)N1CCCN(C(c2ccnc3ccccc23)c2nnnn2-c2ccc3c(c2)OCCO3)CC1` (stereo unspecified) has an AC50 of 0.312 µM.
`CCN(CC)c1ccc(/C=C/c2ccc3ccc(OC)cc3[n+]2CC)cc1` was tested, and the AC50 was 2.36 µM.
`CN(C)c1ccc(C=c2c3cc(O)ccc3n3c2cc(-c2ccccc2)[n+]3C)cc1` showed an AC50 of 0.975 µM.
In the case of `COc1cc(O)c(C(CCN2CCCCC2)c2ccc(N(C)C)cc2)c(OC)c1` (stereo unspecified), the AC50 is reported as 10.2 µM.
With `CCN(CC)c1ccc(C(=C2C=CC(=[N+](CC)CC)C=C2)c2ccc(N(CC)CC)cc2)cc1` the AC50 was 0.153 µM.
Work on `CC1NC(=O)NC1CCCCCC(=O)Nc1ccc(F)c(Cl)c1` (stereo unspecified) yielded an AC50 of less than 0.08 µM.
For `Cc1[nH]c2ccc(O)cc2c1CCN`, the AC50 was 5.35 µM.
`CCCC(=O)NC(c1ccc(N(C)C)cc1)c1ccc2cccnc2c1O` (stereo unspecified) was tested, and the AC50 was 1.04 µM.
Compound `C[C@H](CO)N1C[C@H](C)[C@@H](CN(C)Cc2ccc(Oc3ccccc3)cc2)Oc2ccc(N(C)C)cc2C1=O` has an AC50 of 10.7 µM.
`CCOc1ccc(NCc2cccn2-c2nnc(N3CCC(C(=O)NCCCN4C(C)CCCC4C)CC3)s2)cc1` (stereo unspecified) was tested, and the AC50 was 5.36 µM.
`O=C(N/N=C/c1c(O)ccc2ccccc12)c1ccc[n+](CCO)c1` showed an AC50 of 0.257 µM.
`CCN(CC)c1ccc(C(=C2C=CC(=[N+](CC)CC)C=C2)c2ccc(S(=O)(=O)O)cc2S(=O)(=O)[O-])cc1` gave an AC50 of 4.29 µM.
`NC(=NCCCCCCN=C(N)/N=C(\N)Nc1ccc(Cl)cc1)/N=C(\N)Nc1ccc(Cl)cc1` was tested, and the AC50 was 5.27 µM.
With `CN(C)c1cc2c3ccccc3n(C)c2cc1N` the AC50 was 1.08 µM.
`CN[C@H]1C[C@H]2c3[nH]c4ccc(-c5cccc(C)c5)cc4c3CCN2C[C@H]1[C@H](C)O` gave an AC50 of 6.97 µM.
Work on `CN(C)CCNC(=O)c1cccc(-c2cnc3c(NC=O)cc(/C=C/c4ccccc4)cn23)c1` yielded an AC50 of 0.523 µM.
In the case of `NCC(O)c1cc(O)c(O)cc1F` (stereo unspecified), the AC50 is reported as 6.14 µM.
`CN1\C(=C/C=C/C=C/C=[N+](C)C)C(C)(C)c2ccccc21` gave an AC50 of 9.97 µM.
`COc1ccc(N2CCN(CCCNC(=O)CCC(=O)N3CCOc4ccc(Cl)cc43)CC2)cc1` gave an AC50 of 11.5 µM.
For `CC(C)(C)C1=CC(=Nc2ccccc2N)C=C(C(C)(C)C)C1=O`, the AC50 was 0.761 µM.
`O=C1c2cccc(NCCNCCO)c2C(=O)c2cccc(NCCNCCO)c21` gave an AC50 of 6.88 µM.
`CS(=O)(=O)N1CCCCN2[C@H](C1)[C@H](c1ccc(C#Cc3ccccn3)cc1)[C@@H]2CO` gave an AC50 of 7.82 µM.
Compound `CCN1CCN(c2ccc(N)cc2)CC1` has an AC50 of 1.54 µM.
`C[n+]1c(-c2ccccc2)c2cc(N)ccc2c2ccc(N)cc21` gave an AC50 of 9.5 µM.
With `O=C(COc1ccc2ccc(=O)oc2c1)Nc1ccc(N2CCCCC2)cc1` the AC50 was 9.56 µM.
`O=c1[nH]c2ccccc2n1C1CCN(C(c2nnnn2C2CCCCC2)C2CC2)CC1` (stereo unspecified) was tested, and the AC50 was 11.1 µM.
In the case of `CN(C(=O)c1ccc(NC(=O)Cc2ccc(NC(=O)C3CCN(C(=O)c4ccccc4)CC3)cc2)cc1)C1CC1`, the AC50 is reported as 0.233 µM.
Work on `Cc1ccnc(NC(c2cccnc2)c2ccc3cccnc3c2O)c1` (stereo unspecified) yielded an AC50 of 0.808 µM.
`COc1cc(N(C)C)ccc1C=c1c2ccccc2n2c1cc(-c1ccccc1)[n+]2C` gave an AC50 of 1.88 µM.
`CCC[C@@H](CN1CCC[C@H]1CN1C(N)=NC[C@@H]1Cc1ccccc1)N1C[C@@H](Cc2ccccc2)N(CCc2ccc(Cl)c(Cl)c2)C1=N` was tested, and the AC50 was 5.41 µM.
`CN(C)c1ccc2nc3ccc(=O)cc-3sc2c1` was tested, and the AC50 was 11.3 µM.
In the case of `COc1cc2c(c(OC)c1OC)-c1ccc(O)c(=O)cc1[C@@H](N)CC2`, the AC50 is reported as 2.3 µM.
`CC(=O)c1cccc2c(O)c(C3=Nc4ccccc4C3=O)[nH]c12` gave an AC50 of 3.11 µM.

Same assay, conditions: biochemical protein-protein interaction assay, at 10 µM (top of the series)
For `CN(C)c1ccc(NC(=S)NC23CC4CC(CC(C4)C2)C3)cc1`, the “activity change, negative = inhibition” value was “inactive”.
`Fc1ccc(-[n+]2nc(Nc3ccccc3)sc2-c2c(Cl)cccc2Cl)cc1` was tested, and the “activity change, negative = inhibition” value was “inactive”.
For `O=C(NCCCN1CCCC1=O)C1CCN(S(=O)(=O)c2cccc(C(F)(F)F)c2)CC1`, the “activity change, negative = inhibition” value was “inactive”.
With `CC(C)n1ncc2c(C(=O)Nc3ccc(S(N)(=O)=O)cc3)cc(C3CC3)nc21` the “activity change, negative = inhibition” value was “inactive”.
With `COc1cc2c(cc1N)-c1ccc(N)cc1C2=O` the “activity change, negative = inhibition” value was “inactive”.
With `O=C(NN1C(=O)/C(=C/c2ccc(O)c(O)c2)SC1=S)c1ccccc1` the “activity change, negative = inhibition” value was “inactive”.
`CCOc1ccc(/C=N/Nc2cc(N3CCOCC3)ncn2)c(O)c1` was tested, and the “activity change, negative = inhibition” value was “inactive”.
With `CN1CCN(CCCN2c3ccccc3Sc3ccc(C(F)(F)F)cc32)CC1` the “activity change, negative = inhibition” value was “inactive”.
With `COc1ccccc1N1CCN(/N=C/c2cccc(Cl)c2)CC1` the “activity change, negative = inhibition” value was “inactive”.
For `Nc1ccc(O)c2c1C(=O)c1ccccc1C2=O`, the “activity change, negative = inhibition” value was “inactive”.
For `CN(C)CCCN1c2ccccc2Sc2ccc(Cl)cc21`, the “activity change, negative = inhibition” value was “inactive”.
For `Cc1csc(Nc2ccccc2)[n+]1-c1ccccc1`, the “activity change, negative = inhibition” value was “inactive”.
`COc1ccc(-n2cc(CNCCc3cnc[nH]3)c(-c3cccc(F)c3)n2)cc1` was tested, and the “activity change, negative = inhibition” value was “inactive”.
In the case of `CC(C)N1CCN(c2ccc(OC[C@H]3CO[C@](Cn4cncn4)(c4ccc(Cl)cc4Cl)O3)cc2)CC1`, the “activity change, negative = inhibition” value is reported as “inactive”.
In the case of `COC(=O)C1=CC(C(=O)c2cccs2)=NN(c2ccc(OC)cc2)C1C(=O)OC` (stereo unspecified), the “activity change, negative = inhibition” value is reported as “inactive”.
`COc1ccc(CCNCc2cc(C)n(-c3ccc(OC)cc3)c2C)cc1` was tested, and the “activity change, negative = inhibition” value was “inactive”.
In the case of `Cc1cc(/C=N/n2c(COc3ccccc3C)nc3ccccc3c2=O)c(O)c([N+](=O)[O-])c1`, the “activity change, negative = inhibition” value is reported as “inactive”.
With `COc1ccc(N=C2S/C(=C\c3ccc(Cl)c([N+](=O)[O-])c3)C(=O)N2CCN(C)C)cc1` the “activity change, negative = inhibition” value was “inactive”.
In the case of `CCn1c(C)c(C(C)=O)c(N2CCN(c3ccc(OC)cc3)CC2)nc1=S`, the “activity change, negative = inhibition” value is reported as “inactive”.
In the case of `CN1CCN(c2ccc(S(=O)(=O)N3CCCCC3)cc2NC(=O)/C=C/c2ccc(Cl)c([N+](=O)[O-])c2)CC1`, the “activity change, negative = inhibition” value is reported as “inactive”.
For `COc1ccc(N2CCC(CNC(=S)Nc3ccc(C)cc3C)C2)cc1` (stereo unspecified), the “activity change, negative = inhibition” value was “inactive”.
With `Cc1ccc(NC(=S)N/N=C/c2ccc([N+](=O)[O-])s2)cc1` the “activity change, negative = inhibition” value was “inactive”.
In the case of `Cn1c(SCC(=O)N2c3ccccc3Sc3ccc(Cl)cc32)nnc1-c1ccco1`, the “activity change, negative = inhibition” value is reported as “inactive”.
`CN=c1scc(-c2ccc(OC)cc2)n1/N=C(\C)c1cccnc1` was tested, and the “activity change, negative = inhibition” value was “inactive”.
`Nc1[nH]n(-c2ccccc2)c(=O)c1N=Nc1ccc2c(c1)OCCO2` was tested, and the “activity change, negative = inhibition” value was “inactive”.
For `COc1ccc(N2CCN(CCCNC(=O)C(=O)c3c(C)n(C)c4ccccc34)CC2)cc1`, the “activity change, negative = inhibition” value was “inactive”.
For `CCc1ccc(-c2nc(CSCC(=O)N3CCN(c4ncccn4)CC3)c(C)o2)cc1`, the “activity change, negative = inhibition” value was “inactive”.
`Cn1cc(C(=O)N/N=C/c2c(O)ccc3ccccc23)ccc1=O` was tested, and the “activity change, negative = inhibition” value was “inactive”.
`CC1Cc2ccccc2N1C(=O)c1ccc(N2CCCC2)c([N+](=O)[O-])c1` (stereo unspecified) was tested, and the “activity change, negative = inhibition” value was “inactive”.
`Oc1c(C(c2ccc(Cl)cc2)N2CCCC2)cc(Cl)c2cccnc12` (stereo unspecified) was tested, and the “activity change, negative = inhibition” value was “inactive”.
For `Cc1cccc(Nc2cc(C)c3c(O)cccc3n2)c1C`, the “activity change, negative = inhibition” value was “inactive”.
With `COc1ccc(OC)c(NC2=C(Cl)C(=O)N(Cc3ccccc3)C2=O)c1` the “activity change, negative = inhibition” value was “inactive”.
For `Cc1ccc(NC(=S)N(CCCN2CCCC2)Cc2cccn2Cc2ccc(Cl)cc2)cc1`, the “activity change, negative = inhibition” value was “inactive”.
`CCN(CC)c1ccc(N=Cc2cc(Br)ccc2O)cc1` was tested, and the “activity change, negative = inhibition” value was “inactive”.
`CN(C)c1ccc(C(CNC(=O)c2ccccc2)c2c[nH]c3ccccc23)cc1` (stereo unspecified) was tested, and the “activity change, negative = inhibition” value was “inactive”.
In the case of `Cc1c(C)n(Cc2ccc(Cl)cc2)c2ccc(C(=O)NCCCN3CCOCC3)cc12`, the “activity change, negative = inhibition” value is reported as “inactive”.
With `CC(C)C[C@@H](C(=O)NC1CCN(Cc2ccccc2)CC1)N1C(=O)N2CCc3c([nH]c4ccccc34)[C@@]2(C)C1=O` the “activity change, negative = inhibition” value was “inactive”.
`COc1cc(/C=N/N=C(N)N)ccc1OCc1ccc(Cl)cc1` was tested, and the “activity change, negative = inhibition” value was “inactive”.
For `O=C(NC1CCCCC1)C(c1cccs1)N(CCCN1CCOCC1)C(=O)c1ccc(-c2ccccc2)[nH]1` (stereo unspecified), the “activity change, negative = inhibition” value was “inactive”.
With `C[n+]1c2n(c3ccccc31)N=C(c1cc(C(C)(C)C)c(O)c(C(C)(C)C)c1)CS2` the “activity change, negative = inhibition” value was “inactive”.
`Cn1ccc2c(/C=C/c3ccc(F)cc3)cc3c(c21)C1CCC3C1` (stereo unspecified) was tested, and the “activity change, negative = inhibition” value was “inactive”.
With `Cc1oc(-c2cccc3ccccc23)nc1CN1CCN(c2ncnc3ccccc23)CC1` the “activity change, negative = inhibition” value was “inactive”.
For `C(=C\c1ccc2ccccc2n1)/c1ccccc1`, the “activity change, negative = inhibition” value was “inactive”.
